Source: patent US10788497B2, “Method for detecting oxidising species” (ECOLE POLYTECHNIQUE, priority 2015, dated 2020)

System: EGFR (Epidermal Growth Factor Receptor)
Test: Hydrogen peroxide production in vascular smooth muscle cells after endothelin-1 stimulation, with or without EGFR inhibition, measured with YAG:Ce and reduced GdVO4:Eu nanoparticles
Assay type: cell-based
Details: mouse vascular smooth muscle cells; 270 nM endothelin-1; AG1478 applied 30 min before stimulation and added to the observation medium
Method: Firstly, mammalian cells were prepared. For this purpose, mouse vascular smooth muscle cells (primary culture) were cultured in RPMI (“Roswell Park Memorial Institute” medium) containing 10% of fetal calf serum and antibiotics, in the present case penicillin and streptomycin. When confluence reaches 80%, the cells are taken and deposited on glass slides. In this particular case, 1.5×10^4 cells are typically arranged on a glass slide. The cells are then cultured on the slides for forty-eight hours in the complete culture medium, and then in a medium without serum for twenty-four hours.
In addition, a stable colloidal solution of […] with a concentration roughly equal to 1 mM is prepared. […]
Then a slide with cells loaded with nanoparticles is placed on a sample holder and 1 mL of buffered physiological medium (HBSS/1 mM HEPES) is added. […] After fifty seconds of observation, the initial medium is replaced with physiological medium containing 270 nM of endothelin-1 (ET-1) and the luminescence of individual nanoparticles is observed for several minutes on a full-field sensor (EM-CCD ImageEM camera, Hamamatsu). […]
Next, the variations in intensity of the particles observed (doped with Ce or Eu) over time are determined using image analysis or calculation software (for example Matlab). Each curve obtained is normalized, taking the first values measured for reference. […]

## COc1cc2ncnc(Nc3cccc(Cl)c3)c2cc1OC [AG1478]
  contribution of the EGFR pathway to hydrogen peroxide production (inhibited cells produce half as much hydrogen peroxide as the normal cells): 50%
